Like-named read-outs stand apart in the source and are kept apart here.

The target in series [1] is T1, AChE from Electrophorus electricus (Electrophorus electricus, UniProt O42275).
T1 construct: purchased Sigma (St. Louis, MO, USA)
As to the kind of experiment: biochemical. To be noted: Ellman's method; read-out: IC50 in the AChEI assay. As to the method: AChEI activity was measured using Ellman’s method. AChE hydrolyzes the substrate ACTI into acetate and thiocholine. In a neutral and alkaline medium; thiocholine reacts with DTNB to give yellow colored 2-nitro-5-thiobenzoate, which can be detected spectrophotometrically at 405 nm. Briefly, in a 96-well plate, 25 µL of 15 mM ACTI, 125 µL of 3 mM DTNB in buffer B (50 mM Tris HCl, pH = 8, 0.1 M NaCl, 0.02 M MgCl2·6H2O), 50 µL of buffer A (50 mM Tris-HCl, PH 8, 0.1% BSA) and 25 µL of tested sample (dissolved in 25% DMSO) were mixed, and the absorbance was measured using a microplate reader (Biotek, Winooski, VT, USA) at 405 nm every 16 s ten times. Then, 25 µL of AChE (0.25 U/mL in buffer A) was added and the absorbance was measured ten times every 16 s. A solution of 25% DMSO was used as a negative control. Absorbance was plotted against time and enzyme activity was calculated from the slope of the line so obtained and expressed as a percentage compared to an assay using a buffer without any inhibitor. Fractions were tested at 400 µg/mL. To avoid any increase in absorbance due to the color of the compounds or spontaneous hydrolysis of the substrate, the absorbance before addition of the enzyme was subtracted from the absorbance after adding the enzyme.
(§1) IC50 values of isolated compounds in AChEI and scavenging of hydroxyl radical assays were calculated using Probit Analysis (SPSS Version 16.0 for Windows, SPSS Inc., Chicago, IL, USA) for five different concentrations in three independent experiments. Cell viability was expressed as a percentage of MTT reduction, assuming that the viability of cells treated with 1% DMSO as a negative control was 100%. Figures were built in Microsoft Excel 2010. All values are the mean ± SD of three independent experiments. Data were analyzed for statistical significance using one-way ANOVA, followed by Dunnet’s test as a post-hoc test with GraphPad Prism 5.0 software for Windows (Inc., San Diego, CA, USA).
(In general: In Ellman's method for cholinesterases, released thiocholine reacts with DTNB.)

Series [2] can be described thus: Scavenging of hydroxyl radical, 2-deoxyribose degradation assay. To be noted: for % Inhibition of deoxyribose degradation, Non Site-Specific: at 300 µM (maximum solubility in phosphate buffer). On the procedure: The inhibitory effect of bioactive compounds on deoxyribose degradation was determined by measuring the competition between deoxyribose and bioactive compounds for the hydroxyl radicals (^.OH) generated from the Fe^3+/ascorbate/EDTA/H2O2 system (referred to non-site-specific assay; the major activity measured is ^.OH scavenging) or an Fe^3+/ascorbate/H2O2 system (referred to as a site-specific assay; major activity measured is metal chelation). Both assays depend on the formation of a highly reactive hydroxyl radical, OH, by the interaction of iron ions with H2O2 through Fenton’s reaction. […] This assay was performed as previously described. Different concentrations of tested compounds were dissolved in 400 µL phosphate buffer (0.2 M, pH 7.4). Then, 50 µL of deoxyribose (60 mM), 50 µL of Na2EDTA (2 mM), 50 µL of FeCl3 (3.2 mM), 50 µL of H2O2 (60 mM) and 50 µL of ascorbic acid (2 mM) were added, and the total volume of the reaction mixture was adjusted to 1 mL with buffer. After water-bath incubation at 50 °C for 25 min, the reaction was terminated by 250 µL of trichloroacetic acid (10%, w/w). […] For site-specific hydroxyl-radical-scavenging activity, the reaction mixture was similar to the above method, except that EDTA was replaced by an equivalent volume of buffer.
as §1, with “Figures were built in Microsoft Excel 2010.” left out

In another series the target is T2, Aβ25-35 (Homo sapiens, UniProt P05067).
T2 construct: Aβ25-35 (25 µM) freshly prepared in PBS; purchased Sigma (St. Louis, MO, USA)
Description: Thioflavin T assay of Aβ25-35 aggregation. On Decrease of ThT Fluorescence: key: +: Weak activity; ++: Strong activity. In kind it is biochemical. To be noted: for effect on Th-T fluorescence (in words): 25-100 µM; for Decrease of ThT Fluorescence: summary Table 4; for decrease of Th-T fluorescence intensity: Aβ25-35 25 µM. As to the method: Thioflavin T (ThT), abenzothiazole salt, is used to quantify misfolded protein aggregates and amyloid peptides. ThT is a non-fluorescent dye which, when it binds to amyloid rich aggregates, produces a fluorescent signal proportional to the quantity of amyloid aggregation. Aβ25-35 (25 µM) freshly prepared in PBS (50 mM, pH = 7.4) was incubated at 37 °C with or without different concentrations (100, 50, 25 µM) of isolated compounds at 37 °C and shaken at 300 rpm for 3 h. One hundred µL of each incubated sample was transferred to a 96-well plate, and five µM ThT was added. The ThT fluorescence was measured over 180 min at 10-min intervals at emission λ at 485 nm; and excitation λ at 442 nm using FlexStation 3 Microplate Reader (Molecular Devices, LLC, Sunnyvale, CA, USA), and data were managed by SoftMax Pro® 5.4.1 software. The samples were constantly shaken every 60 sec during the incubation. 1% DMSO and different concentrations of ECCG were taken as negative and positive controls, respectively. The area under the curve (AUC) was taken as indicative of fluorescence intensity. Fluorescence of samples and ThT without Aβ25-35 (sample blank) was detected and subtracted from the final AUC to prevent any interference.

Series [3] relates to neuro-2A cells. Description: Protection against Aβ25-35-induced neurotoxicity (MTT). On Protection against Aβ25-35: key: +: Weak activity; ++: Strong activity. The note with it: for Protection against Aβ25-35: summary Table 4. It is filed as cell-based, Mouse. As to the method: (§2) Neuro-2A cell line was maintained in Eagle’s Minimum Essential medium supplemented with 10% fetal bovine serum, 1% of 100× antibiotic—antimitotic agents (containing penicillin and streptomycin) in a humid atmosphere of 5% (v/v) CO2 and 95% (v/v) air at 37 °C. Neuro-2A cells were plated in 96-well cell culture plates at a density of 3 × 10^4 cells/well for H2O2 and intracellular ROS assays and 2.5 × 10^3 cells/well for the Aβ25-35-assay.
(§3) Cell viability was determined by MTT reduction assay. Briefly, after treatment with isolated compounds, the media was replaced by fresh one after washing the cells with 100 µL PBS and 20 µL of MTT (5 mg/mL) was added to each well. After 4 h incubation at 37 °C, the state of cells was checked under microscope to confirm either cytotoxicity in H2O2 and Aβ25-35 wells or protection in positive controls and isolated compounds ones. The supernatants were aspirated carefully, and 150 µL of DMSO was added to each well to dissolve the dark blue formazan crystals. The absorbance was measured using a microplate reader at 570 nm.
Similarly, the concentration of Aβ25-35 that decreased cell viability to about 50% was determined. […] So, the cells were incubated with different concentrations of the isolated compounds (6.25, 12.5, 25, 50 and 100 µM) and EGCG as a positive control for 3 h followed by Aβ25-35 treatment for 72 h.

Series [4] concerns intracellular ROS in Neuro-2A cells. Description: Scavenging of intracellular reactive oxygen species (Bes-H2O2-AC, DFF fluorescence). Further: key: +: Weak activity; ++: Strong activity. To be noted: summary Table 4. In kind it is cell-based, Mouse. On the procedure:
as §2
This assay was performed as previously described with some modifications. Briefly, Neuro-2A cells were seeded in 96-well Clear Fluorescence Black Plate (number 655090, Greiner Bio-one, Tokyo, Japan). Cells were treated with three different concentrations (25, 50, 100 µM) of the samples. After 2 h incubation, cells were subjected to oxidative stress using 600 µM of H2O2 for 30 min. The nucleus was stained by Hoechst 33342 (Dojindo, Kumamoto, Japan), and the amount of difluorofluorescein (DFF) released from the reaction of H2O2 and BES-H2O2-Ac was taken as an indication of the amount of intracellular H2O2 and ROS. Images of each well were acquired using an IN Cell Analyzer 1000 (GE Healthcare, Buckinghamshire, UK) using 360-nm (Hoechst 33342) and 480-nm (BES-H2O2-Ac) excitation filters and monitored through 460-nm and 535-nm emission filters, respectively. Developer software was used to analyze the images of Hoechst 33342 and BES-H2O2-Ac staining, and the resulting data were then applied to Spotfire Decision Site Client 8.2 software for visualizing the results.

In series [5] the test system is neuro-2A cells. Description: Protection against H2O2-induced neurotoxicity (MTT). In kind it is cell-based, Mouse. As to the method: as §2, §3
H2O2 interacts with metals in the medium, producing highly cytotoxic hydroxyl radicals that induce neurotoxicity. So, active compounds are those that can scavenge free radicals and increase the cell viability. This assay was performed as previously described with slight modifications. Briefly, the concentration of H2O2 that decreased cell viability to about 50% was determined as follows: cells were cultured in a 96-well plate and after 24 h were further incubated with different concentrations of H2O2 (50, 100, 150, 200 µM) freshly prepared from 30% stock solution. After 24 h, cell viability was determined using the MTT reduction method. H2O2 at a concentration of 150 µM had the desired cytotoxicity and was used for the next step.

T1 sequence (O42275 24-633): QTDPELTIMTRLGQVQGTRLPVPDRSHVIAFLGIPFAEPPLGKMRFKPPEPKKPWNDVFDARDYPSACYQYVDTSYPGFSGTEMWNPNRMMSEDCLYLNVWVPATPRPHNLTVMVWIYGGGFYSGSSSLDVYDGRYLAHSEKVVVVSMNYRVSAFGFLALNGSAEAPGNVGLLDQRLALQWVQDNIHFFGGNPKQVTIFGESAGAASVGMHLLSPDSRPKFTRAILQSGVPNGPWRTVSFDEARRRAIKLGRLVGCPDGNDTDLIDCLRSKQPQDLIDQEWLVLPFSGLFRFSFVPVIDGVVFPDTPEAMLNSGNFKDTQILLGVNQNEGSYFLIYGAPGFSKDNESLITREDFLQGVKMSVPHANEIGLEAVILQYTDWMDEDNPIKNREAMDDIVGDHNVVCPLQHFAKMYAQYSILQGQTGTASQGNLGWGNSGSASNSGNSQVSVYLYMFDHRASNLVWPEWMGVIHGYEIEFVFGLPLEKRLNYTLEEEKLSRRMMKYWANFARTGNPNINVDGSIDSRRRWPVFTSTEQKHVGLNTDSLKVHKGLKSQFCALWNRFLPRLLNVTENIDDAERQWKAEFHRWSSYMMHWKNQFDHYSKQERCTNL

For `CC(=O)O[C@@H]1c2c(ccc3ccc(=O)oc23)OC(C)(C)[C@@H]1OC(=O)[C@@]1(C)O[C@H]1C` [Isoepoxypteryxin (3), isoepoxypteryxin], the IC50 in series [1] is 327 ± 3.4 µM. Besides, the “% Inhibition of deoxyribose degradation, Non Site-Specific” value in series [2] was 6 ± 1.4%. Further, at Aβ25-35, the “effect on Th-T fluorescence (in words)” value is reported as “decreased Th-T fluorescence in a dose-dependent manner” and the “Decrease of ThT Fluorescence” value is on record as “++”. In addition, in the series with neuro-2A cells [3], the “Protection against Aβ25-35” value is “++”.

As for `C/C=C(/C)C(=O)O[C@@H]1[C@H](OC(C)=O)c2c(ccc3ccc(=O)oc23)OC1(C)C` [Isopteryxin (4), isopteryxin], in series [1], the IC50 was 475.9 ± 1.5 µM. Also, the “% Inhibition of deoxyribose degradation, Non Site-Specific” value in series [2] turned out to be 10 ± 2.1%. Besides, at Aβ25-35, the “effect on Th-T fluorescence (in words)” value was “weak activity” and the “Decrease of ThT Fluorescence” value is on record as “+”. In addition, in the series on neuro-2A cells [3] (at the highest concentration (100 µM)), the “neuroprotection against Aβ25-35 (in words)” value is “significant neuroprotection (p < 0.05)”. In the series with neuro-2A cells [3], the “Protection against Aβ25-35” value is reported as “+”.

In the case of “kaempferol-3-O-rutinoside [Kaempferol-3-O-rutinoside (14)]”, in series [4], the “Intracellular ROS Scavenging” value is “+”. Moreover, the IC50 in series [2] (Fe3+/ascorbate/EDTA/H2O2 system, read-out: IC50 hydroxyl radical scavenging, Non Site-Specific) is 1030 ± 25.7 µM; in series [2] (Fe3+/ascorbate/H2O2 system without EDTA, read-out: IC50 hydroxyl radical scavenging, Site-Specific) it was 1540 ± 20.8 µM; in series [2] (summary Table 4 (values of the non site-specific assay), read-out: Hydroxyl Radical Scavenging/IC50) it was 1030 ± 25.7 µM. For the same compound, the results for the “decrease of Th-T fluorescence intensity” value on Aβ25-35 (50 µM) and at Aβ25-35 (100 µM) were 12% ±3.7% and 33% ± 2.5%, respectively. The “effect on Th-T fluorescence (in words)” value at Aβ25-35 is “decreased Th-T fluorescence in a dose-dependent manner”. Further, on Aβ25-35, the “Decrease of ThT Fluorescence” value is on record as “++”. Besides, the “neuroprotection against H2O2-induced neurotoxicity (in words)” value in the series with neuro-2A cells [5] (6.25-100 µM, H2O2 150 µM) is “significant (p < 0.05) increase in cell viability at 100 µM”. The “Protection against H2O2” value in the series on neuro-2A cells [5] (summary Table 4) is “+”. In addition, the “Protection against Aβ25-35” value with neuro-2A cells [3] is on record as “++”.

Source of the values: publication PMC6272295, “In Vitro Neuroprotective Activities of Compounds from Angelica shikokiana Makino” (Molecules, 2015).
